Assay results taken from paper PMC7413254 (Nature Communications, 2020).
Where two headings read alike, the source gives them in different places.

Experiments:
PfCRT [1] = experiment: Influx of VF-6 via PfCRT into the oocyte, solutes tested as potential co-substrates; assay type: cell-based, Plasmodium falciparum; set-up: key: X: Compounds that have been tested as potential co-substrates but are not required for influx of VF-6 via PfCRT into the oocyte; conditions: X marks the solute
PfCRT [2] = experiment: Test of solutes as potential co-substrates for influx of VF-6 via PfCRT into the oocyte; assay type: cell-based, Plasmodium falciparum; set-up: key: X: Compounds that have been tested as potential co-substrates but are not required for influx of VF-6 via PfCRT into the oocyte; conditions: X = tested
PfCRT^3D7 [3] = molecular target: T1, PfCRT^3D7 (Plasmodium falciparum, UniProt Q8IBZ9); experiment: cell-based; assay type: cell-based; conditions: total [3H]CQ transport; for inhibition at 500 µM: [test solute] = 0.5 mM; for inhibition at 1000 µM: [test solute] = 1 mM; for inhibition at 2000 µM: [test solute] = 2 mM
How it was run: (§1)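 Transport runs from the acidic bath into the cytosol, analogous to PfCRT-mediated efflux out of the vacuole. Non-expressing oocytes act as background.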

non-expressing oocytes [4] = assay type: cell-based, Xenopus laevis; conditions: total [3H]CQ transport; for Uptake of [3H]CQ (% non-expressing oocyte control), trans-stimulation: non-expressing oocytes, normalised to the oocyte type control; for Uptake of [3H]CQ (% PfCRTDd2 control), trans-stimulation, non-expressing oocytes: mean ± SEM, SEM
How it was run: (§2)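 Oocytes (ten per treatment, ≥4 independent frogs/days) were preloaded by injecting VF-6 in 25 nL ND96 at pH 5.0, 5.5, 6.0 or 7.0, or Na^+-free choline buffer, then uptake run 1.5 h, 27.5 °C, ND96 pH 5.5 by default. Internal concentrations assumed ~400 nL oocyte volume.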

PfCRT^Dd2 [5] = molecular target: T2, PfCRT^Dd2 (Plasmodium falciparum, UniProt Q9N623, A220S/I356T/K76T/M74I/N326S/N75E/Q271E/R371I); experiment: cell-based; assay type: cell-based; conditions: […]; for activity at 45000 µM: [test solute]i = 45 mM (30 mM for some solutes due to solubility)
How it was run: as §2

PfCRT^3D7 [6] = molecular target: T1, PfCRT^3D7; experiment: cell-based; assay type: cell-based
How it was run: as §2

PfCRT^Ecu1110 [7] = molecular target: T3, PfCRT^Ecu1110 (Plasmodium falciparum, UniProt Q9N623, A220S/I356L/K76T/N326D); experiment: cell-based; assay type: cell-based; conditions: […]
How it was run: as §2

PfNT1 = molecular target: T4, PfNT1 (Plasmodium falciparum, UniProt Q8IDM6); experiment: cell-based; assay type: cell-based; conditions: for activity at 5000 µM: total [3H]CQ transport
T4 construct: expressed in transfected cells; host or cells: Xenopus laevis oocytes (stage V-VI), cRNA-injected
How it was run: as §2

non-expressing oocytes [8] = experiment: cells; assay type: cell-based, Xenopus laevis; conditions: Xenopus laevis, total [3H]CQ transport; for inhibition at 500 µM: [test solute] = 0.5 mM; for inhibition at 1000 µM: [test solute] = 1 mM; for inhibition at 2000 µM: [test solute] = 2 mM
How it was run: as §1

PfCRT^Dd2 [9] = molecular target: T2, PfCRT^Dd2; experiment: [3H]CQ uptake into Xenopus oocytes, cis-inhibition by unlabelled solute; assay type: cell-based
How it was run: as §1

PfCRT^Ecu1110 [10] = molecular target: T3, PfCRT^Ecu1110; experiment: as above; assay type: cell-based
How it was run: as §1

[11] = PfCRT3D7 oocytes, normalised to the oocyte type control, read-out: Uptake of [3H]CQ (% PfCRT3D7 control), cis-inhibition
[12] = mean ± SEM, SEM, read-out: Uptake of [3H]CQ (% PfCRTDd2 control), cis-inhibition, PfCRT3D7
[13] = Oocyte, mean ± SEM, SEM, read-out: Uptake of [3H]CQ (% PfCRTDd2 control), cis-inhibition, non-expressing oocytes
[14] = non-expressing oocytes, normalised to the oocyte type control, read-out: Uptake of [3H]CQ (% non-expressing oocyte control), cis-inhibition
[15] = read-out: PfCRT-mediated [3H]CQ transport, cis-inhibition (% PfCRTDd2 control)
[16] = read-out: Uptake of [3H]CQ (% PfCRTDd2 control), cis-inhibition, PfCRTDd2, SEM
[17] = read-out: PfCRT-mediated [3H]CQ transport, cis-inhibition (% PfCRTEcu1110 control)
[18] = read-out: Uptake of [3H]CQ (% PfCRTDd2 control), cis-inhibition, PfCRTEcu1110, SEM
[19] = read-out: Uptake of [3H]CQ (% PfCRTEcu1110 control), cis-inhibition
[20] = read-out: [3H]CQ transport (% PfCRTEcu1110 control), cis-inhibition, PfCRTEcu1110, SEM

T1 sequence (Q8IBZ9 59-398): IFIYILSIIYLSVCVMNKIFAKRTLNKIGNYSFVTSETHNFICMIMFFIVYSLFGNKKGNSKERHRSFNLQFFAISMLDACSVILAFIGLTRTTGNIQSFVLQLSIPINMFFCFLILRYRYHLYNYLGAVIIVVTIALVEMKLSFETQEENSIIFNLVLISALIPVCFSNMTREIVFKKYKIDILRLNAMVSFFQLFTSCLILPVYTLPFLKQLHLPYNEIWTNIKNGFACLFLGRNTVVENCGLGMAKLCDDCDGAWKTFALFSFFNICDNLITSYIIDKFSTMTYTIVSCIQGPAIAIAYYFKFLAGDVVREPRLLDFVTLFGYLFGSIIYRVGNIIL
T4 sequence (Q8IDM6 whole entry): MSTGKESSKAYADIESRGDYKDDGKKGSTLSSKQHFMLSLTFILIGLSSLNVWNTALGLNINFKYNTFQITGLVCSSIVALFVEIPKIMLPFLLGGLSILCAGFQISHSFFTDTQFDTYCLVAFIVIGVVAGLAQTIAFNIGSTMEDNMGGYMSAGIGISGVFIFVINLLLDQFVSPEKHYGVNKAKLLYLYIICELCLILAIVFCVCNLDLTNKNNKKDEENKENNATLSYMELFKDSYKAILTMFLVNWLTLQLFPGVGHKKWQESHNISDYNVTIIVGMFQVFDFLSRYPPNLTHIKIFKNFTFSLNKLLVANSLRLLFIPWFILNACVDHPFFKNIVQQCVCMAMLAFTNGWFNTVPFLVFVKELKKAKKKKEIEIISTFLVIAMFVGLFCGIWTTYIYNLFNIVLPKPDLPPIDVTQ
T3 sequence (Q9N623 whole entry A220S/I356L/K76T/N326D): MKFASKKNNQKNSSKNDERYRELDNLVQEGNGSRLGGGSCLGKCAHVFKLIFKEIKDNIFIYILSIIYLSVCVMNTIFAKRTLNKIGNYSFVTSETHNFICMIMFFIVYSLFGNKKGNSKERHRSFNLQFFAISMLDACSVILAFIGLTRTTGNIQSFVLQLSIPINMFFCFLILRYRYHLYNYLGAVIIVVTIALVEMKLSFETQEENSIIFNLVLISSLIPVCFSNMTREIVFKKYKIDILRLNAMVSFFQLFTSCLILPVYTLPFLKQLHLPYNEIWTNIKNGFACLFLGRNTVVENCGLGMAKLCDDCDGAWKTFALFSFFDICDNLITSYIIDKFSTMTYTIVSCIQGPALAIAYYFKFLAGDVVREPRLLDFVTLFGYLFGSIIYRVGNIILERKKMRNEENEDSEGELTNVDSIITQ
T2 sequence (Q9N623 whole entry A220S/I356T/K76T/M74I/N326S/N75E/Q271E/R371I): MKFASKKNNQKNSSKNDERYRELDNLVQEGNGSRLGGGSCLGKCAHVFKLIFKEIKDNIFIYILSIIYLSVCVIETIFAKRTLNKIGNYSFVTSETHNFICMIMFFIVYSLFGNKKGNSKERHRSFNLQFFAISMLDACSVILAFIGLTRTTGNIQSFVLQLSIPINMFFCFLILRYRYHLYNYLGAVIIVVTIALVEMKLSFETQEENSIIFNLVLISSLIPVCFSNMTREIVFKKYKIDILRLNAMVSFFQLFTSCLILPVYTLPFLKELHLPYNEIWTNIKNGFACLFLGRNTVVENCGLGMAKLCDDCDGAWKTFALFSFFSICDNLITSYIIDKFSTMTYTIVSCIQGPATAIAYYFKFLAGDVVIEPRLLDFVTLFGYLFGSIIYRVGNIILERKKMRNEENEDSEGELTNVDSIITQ

Structure (SMILES): CC[C@H](C)[C@H](N)C(=O)O [L-isoleucine]
- Compounds that have been tested as potential co-substrates but are not required for influx of VF-6 via PfCRT into the oocyte (PfCRT [1]): X
- Tested as potential co-substrate but not required for influx of VF-6 via PfCRT into the oocyte (PfCRT [2]): X
- inhibition at 500 µM (PfCRT^3D7 [3]; [11]): 99 ± 4.7%
- inhibition at 1000 µM (PfCRT^3D7 [3]; [11]): 98 ± 5.7%
- inhibition at 2000 µM (PfCRT^3D7 [3]; [11]): 102 ± 4.7%
- inhibition at 500 µM (PfCRT^3D7 [3]; [12]): 3.1 ± 0.07%
- inhibition at 1000 µM (PfCRT^3D7 [3]; [12]): 2.8 ± 0.04%
- inhibition at 2000 µM (PfCRT^3D7 [3]; [12]): 2.8 ± 0.02%
- Uptake of [3H]CQ (% non-expressing oocyte control), trans-stimulation (non-expressing oocytes [4]; [test solute]i = 5 mM): 97 ± 1.3 % non-expressing oocyte control
- Uptake of [3H]CQ (% non-expressing oocyte control), trans-stimulation (non-expressing oocytes [4]; [test solute]i = 45 mM (30 mM for some solutes due to solubility)): 100 ± 2.7 % non-expressing oocyte control
- Uptake of [3H]CQ (% PfCRTDd2 control), trans-stimulation, non-expressing oocytes (non-expressing oocytes [4]; [test solute]i = 5 mM (intracellular)): 3.2 ± 0.06 % PfCRTDd2 control
- Uptake of [3H]CQ (% PfCRTDd2 control), trans-stimulation, non-expressing oocytes (non-expressing oocytes [4]; [test solute]i = 45 mM (intracellular; 30 mM for some solutes due to solubility)): 2.5 ± 0.05 % PfCRTDd2 control
- activity at 5000 µM (PfCRT^Dd2 [5]; pH 5.5, read-out: PfCRT-mediated [3H]CQ transport, trans-stimulation (% PfCRTDd2 control), [test solute]i = 5 mM (intracellular), PfCRTDd2 oocytes, normalised to oocyte type control): 94 ± 5.1%
- activity at 5000 µM (PfCRT^Dd2 [5]; pH 5.5, read-out: Uptake of [3H]CQ (% PfCRTDd2 control), trans-stimulation, PfCRTDd2, total [3H]CQ transport, [test solute]i = 5 mM (intracellular), mean ± SEM, SEM): 96 ± 4.4%
- activity at 5000 µM (PfCRT^Dd2 [5]; pH 5.5, read-out: Uptake of [3H]CQ (% PfCRTDd2 control), trans-stimulation, PfCRTDd2 oocytes, [test solute]i = 5 mM, total [3H]CQ transport, normalised to the oocyte type control): 96 ± 4.4%
- activity at 45000 µM (PfCRT^Dd2 [5]; pH 5.5, read-out: Uptake of [3H]CQ (% PfCRTDd2 control), trans-stimulation, PfCRTDd2 oocytes, total [3H]CQ transport, normalised to the oocyte type control): 100 ± 2.2%
- activity at 5000 µM (PfCRT^Dd2 [5]; pH 5.5, read-out: [3H]CQ transport (% PfCRTDd2 control), trans-stimulation, PfCRTDd2, trans-stimulation, [test solute]i = 5 mM (injected), PfCRT-mediated component (background subtracted), mean ± SEM, SEM): 94 ± 5.1%
- activity at 45000 µM (PfCRT^Dd2 [5]; pH 5.5, read-out: [3H]CQ transport (% PfCRTDd2 control), trans-stimulation, PfCRTDd2, trans-stimulation, PfCRT-mediated component (background subtracted), mean ± SEM, SEM): 98 ± 3.6%
- activity at 5000 µM (PfCRT^3D7 [6]; PfCRT3D7 oocytes, [test solute]i = 5 mM, total [3H]CQ transport, normalised to the oocyte type control, read-out: Uptake of [3H]CQ (% PfCRT3D7 control), trans-stimulation): 100 ± 3.6%
- [3H]CQ transport (% PfCRT3D7 control), trans-stimulation, PfCRT3D7 (PfCRT^3D7 [6]; SEM): 0.3 ± 0.02 % PfCRT3D7 control
- activity at 5000 µM (PfCRT^3D7 [6]; [test solute]i = 5 mM (intracellular), PfCRT3D7 oocytes, normalised to oocyte type control, read-out: PfCRT-mediated [3H]CQ transport, trans-stimulation (% PfCRT3D7 control)): 98 ± 4.1%
- activity at 45000 µM (PfCRT^3D7 [6]; SEM, read-out: Uptake of [3H]CQ (% PfCRTDd2 control), trans-stimulation, PfCRT3D7): 3.3 ± 0.01%
- activity at 45000 µM (PfCRT^3D7 [6]; read-out: PfCRT-mediated [3H]CQ transport, trans-stimulation (% PfCRT3D7 control)): 96 ± 3.5%
- activity at 45000 µM (PfCRT^3D7 [6]; read-out: Uptake of [3H]CQ (% PfCRT3D7 control), trans-stimulation): 98 ± 4.3%
- activity at 5000 µM (PfCRT^3D7 [6]; total [3H]CQ transport, [test solute]i = 5 mM (intracellular), mean ± SEM, SEM, read-out: Uptake of [3H]CQ (% PfCRTDd2 control), trans-stimulation, PfCRT3D7): 3.3 ± 0.02%
- activity at 5000 µM (PfCRT^Ecu1110 [7]; pH 5.5, read-out: PfCRT-mediated [3H]CQ transport, trans-stimulation (% PfCRTEcu1110 control), [test solute]i = 5 mM (intracellular), PfCRTEcu1110 oocytes, normalised to oocyte type control): 97 ± 2.1%
- activity at 5000 µM (PfCRT^Ecu1110 [7]; pH 5.5, read-out: Uptake of [3H]CQ (% PfCRTEcu1110 control), trans-stimulation, PfCRTEcu1110 oocytes, [test solute]i = 5 mM, total [3H]CQ transport, normalised to the oocyte type control): 99 ± 3.5%
- activity at 45000 µM (PfCRT^Ecu1110 [7]; pH 5.5, read-out: Uptake of [3H]CQ (% PfCRTEcu1110 control), trans-stimulation, PfCRTEcu1110 oocytes, [test solute]i = 45 mM (30 mM for some solutes due to solubility), total [3H]CQ transport, normalised to the oocyte type control): 99 ± 3.2%
- activity at 5000 µM (PfCRT^Ecu1110 [7]; read-out: Uptake of [3H]CQ (% PfCRTDd2 control), trans-stimulation, PfCRTEcu1110, total [3H]CQ transport, [test solute]i = 5 mM (intracellular), mean ± SEM, SEM): 35 ± 1.5%
- activity at 45000 µM (PfCRT^Ecu1110 [7]; read-out: Uptake of [3H]CQ (% PfCRTDd2 control), trans-stimulation, PfCRTEcu1110, total [3H]CQ transport, [test solute]i = 45 mM (intracellular; 30 mM for some solutes due to solubility), mean ± SEM, SEM): 35 ± 1.1%
- activity at 5000 µM (PfNT1; PfNT1 oocytes, [test solute]i = 5 mM, normalised to the oocyte type control, read-out: Uptake of [3H]CQ (% PfNT1 control), trans-stimulation): 98 ± 2.2%
- activity at 45000 µM (PfNT1; SEM, read-out: Uptake of [3H]CQ (% PfCRTDd2 control), trans-stimulation, PfNT1): 2.2 ± 0.03%
- activity at 45000 µM (PfNT1; read-out: Uptake of [3H]CQ (% PfNT1 control), trans-stimulation): 100 ± 2.5%
- activity at 5000 µM (PfNT1; [test solute]i = 5 mM (intracellular), mean ± SEM, SEM, read-out: Uptake of [3H]CQ (% PfCRTDd2 control), trans-stimulation, PfNT1): 3.1 ± 0.02%
- inhibition at 500 µM (non-expressing oocytes [8]; [13]): 2.7 ± 0.08%
- inhibition at 1000 µM (non-expressing oocytes [8]; [13]): 3.3 ± 0.03%
- inhibition at 2000 µM (non-expressing oocytes [8]; [13]): 2.4 ± 0.07%
- inhibition at 500 µM (non-expressing oocytes [8]; [14]): 94 ± 7.5%
- inhibition at 1000 µM (non-expressing oocytes [8]; [14]): 100 ± 4.5%
- inhibition at 2000 µM (non-expressing oocytes [8]; [14]): 101 ± 3.2%
- inhibition at 500 µM (PfCRT^Dd2 [9]; [15]): 95 ± 5.1%
- inhibition at 2000 µM (PfCRT^Dd2 [9]; [15]): 96 ± 3.7%
- inhibition at 500 µM (PfCRT^Dd2 [9]; [16]): 97 ± 4.9%
- inhibition at 1000 µM (PfCRT^Dd2 [9]; [16]): 100 ± 6.5%
- inhibition at 2000 µM (PfCRT^Dd2 [9]; [16]): 98 ± 6.2%
- inhibition at 500 µM (PfCRT^Ecu1110 [10]; [17]): 93 ± 5.9%
- inhibition at 1000 µM (PfCRT^Ecu1110 [10]; [17]): 98 ± 4.1%
- inhibition at 2000 µM (PfCRT^Ecu1110 [10]; [17]): 98 ± 5.2%
- inhibition at 500 µM (PfCRT^Ecu1110 [10]; [18]): 31 ± 1.7%
- inhibition at 1000 µM (PfCRT^Ecu1110 [10]; [18]): 33 ± 1.8%
- inhibition at 2000 µM (PfCRT^Ecu1110 [10]; [18]): 33 ± 1.5%
- inhibition at 500 µM (PfCRT^Ecu1110 [10]; [19]): 96 ± 6.9%
- inhibition at 1000 µM (PfCRT^Ecu1110 [10]; [19]): 100 ± 6.9%
- inhibition at 2000 µM (PfCRT^Ecu1110 [10]; [19]): 101 ± 9.5%
- inhibition at 500 µM (PfCRT^Ecu1110 [10]; [20]): 28 ± 0.3%
- inhibition at 1000 µM (PfCRT^Ecu1110 [10]; [20]): 30 ± 0.6%
- inhibition at 2000 µM (PfCRT^Ecu1110 [10]; [20]): 30 ± 0.5%
